In patent publication US7572768B2, “Methods for identifying compounds for regulating muscle mass or function using corticotropin releasing factor receptors” (priority 2001, dated 2009):

Key:
[1] = system: glucocorticoid-induced muscle atrophy; assay: mouse glucocorticoid-induced atrophy model; format: in vivo; settings: male mice, dexamethasone 1.2 mg/kg/d in drinking water, 0.1-1.0 mg/kg/d by osmotic minipump, nine days
Protocol: Legend: A—water only with no dexamethasone included in drinking water (non-atrophied control); B—water+dexamethasone (atrophied control); C—sauvagine (0.1 mg/kg/d)+dexamethasone; D—sauvagine (0.3 mg/kg/d)+dexamethasone; E—sauvagine (1.0 mg/kg/d)+dexamethasone; *—p≦0.05 compared to water; #—p≦0.05 compared to water+dexamethasone. Following the addition of the glucocorticoid, dexamethasone, to the drinking water (1.2 mg/kg/d), male mice were dosed with the above indicated agents or vehicle control (physiological saline) by continuous infusion using an Alzet osmotic minipump at 5 μl/hr until the end of the experimental period (without additional theophylline). The daily delivered dose of sauvagine is as indicated above. Minipump implantation was performed at the time of initiation of dexamethasone exposure. Nine days following the initiation of dosing sauvagine, the medial gastrocnemius and tibialis anterior muscles were removed and weighed to determine the degree of atrophy.
The glucocorticoid-induced atrophy model involves the administration of a glucocorticoid to the test animal, e.g., 1.2 mg/kg/day of dexamethasone in the drinking water. […] At various times following glucocorticoid administration, the extent of atrophy in the affected muscles is analyzed as described above for the denervation model.

[2] = system: disuse-induced atrophy of skeletal muscle; assay: mouse leg casting disuse atrophy model; format: in vivo; settings: ten days
Protocol: (§1) Legend: A—physiological saline (control); B—theophylline; C—sauvagine (0.03 mg/kg)+theophylline; D—sauvagine (0.1 mg/kg)+theophylline; E—sauvagine (0.3 mg/kg)+theophylline; *—p≦0.05 compared to saline. Following casting of the right hind leg, male mice were injected subcutaneously in the midscapular region twice daily, with sauvagine or vehicle control (physiological saline) for ten days at the daily delivered dose indicated. Sauvagine was co-administered with twice daily intra-peritoneal dosing of the phosphodiesterase inhibitor theophylline (30 mg/kg). On day ten, the medial gastrocnemius and tibialis anterior muscles were removed and weighed to determine the degree of atrophy.
as §1, with “B—urocortin” for “B—theophylline; C—sauvagine (0.03 mg/kg)+theophylline; D—sauvagine (0.1 mg/kg)+theophylline; E—sauvagine”, “urocortin” for “sauvagine”, “days. Urocortin was administered” for “days”, “doses indicated in the description of FIGS. 6A and 6B. Urocortin” for “daily delivered dose indicated. Sauvagine”
Legend: A—non casted muscle control; B—casted muscle, saline control; C—casted muscle, sauvagine (0.3 mg/kg)+theophylline (30 mg/kg); *—p≦0.05 compared to saline. Following casting of the right hind leg, male mice were injected subcutaneously in the midscapular region twice daily, with either sauvagine or vehicle control (physiological saline) for ten days at the doses indicated above. Sauvagine was co-administered 30 mg/kg theophylline. On day ten, the EDL and soleus muscles were removed and absolute force and mass measurements taken to determine the degree of atrophy.
The leg casting disuse atrophy model involves casting one hind leg of an animal from the knee down through the foot. Typically, muscle mass is reduced 20-40% after ten days of casting. Following casting, test compounds are administered by injection or by continuous infusion via implantation of an osmotic minipump (e.g., Alzet, Palo Alto, Calif.) to determine their effect on leg casting induced skeletal muscle atrophy. At various times following leg casting, the extent of atrophy in the affected muscles is analyzed as described above for the denervation model.
The extensor digitorum longus (EDL) and soleus muscles are removed, tendon-to-tendon from the casted mouse leg. A silk suture is tied to each tendon of the isolated muscles and the muscles are placed into a plexiglass chamber filled with Ringer solution (137 mM sodium chloride, 24 mM sodium bicarbonate, 11 mM glucose, 5 mM potassium chloride, 1 mM magnesium sulfate, 1 mM sodium phosphate, 0.025 mM tubocurarine, all at pH 7.4 and oxygenated with 95% oxygen/5% carbon dioxide) constantly bubbled with 95% oxygen/5% carbon dioxide maintained at 25° C. Muscles are aligned horizontally between a servomotor lever arm (Model 305B-LR Cambridge Technology Inc., Watertown Mass., USA) and the stainless steel hook of a force transducer (Model BG-50; Kulite Semiconductor Products Inc., Leonia, N.J., USA) and field stimulated by pulses transmitted between two platinum electrodes placed longitudinally on either side of the muscle. Square wave pulses (0.2 ms duration) generated by a personal computer with a Labview board (Model PCI-MIO 16E-4), Labview Inc., Austin, Tex., USA) are amplified (Acurus power amplifier model A25, Dobbs Ferry, N.Y., USA) to increase titanic contraction. Stimulation voltage and muscle length (Lo) are adjusted to obtain maximum isometric twitch force. Maximum titanic force production (Po) is determined from the plateau of the frequency-force relationship.

[3] = FIG. 9A, male mice, 0.3 mg/kg s.c. twice daily + theophylline 30 mg/kg

## CC[C@H](C)[C@H](NC(=O)[C@@H](NC(=O)[C@H](CC(=O)O)NC(=O)[C@H](CC(C)C)NC(=O)[C@H](CC(C)C)NC(=O)[C@H](CC(C)C)NC(=O)[C@H](CCCNC(=N)N)NC(=O)[C@H](CC(N)=O)NC(=O)[C@H](CC(N)=O)NC(=O)[C@H](C)NC(=O)[C@H](C)NC(=O)[C@H](CCC(N)=O)NC(=O)[C@H](CCC(N)=O)NC(=O)[C@H](CCCCN)NC(=O)[C@H](CCC(=O)O)NC(=O)[C@H](CCCCN)NC(=O)[C@H](CCC(=O)O)NC(=O)[C@H](CCC(N)=O)NC(=O)[C@H](CCCCN)NC(=O)[C@H](CCC(=O)O)NC(=O)[C@@H](NC(=O)[C@H](CCC(=O)O)NC(=O)[C@@H](NC(=O)[C@H](CCSC)NC(=O)[C@H](CCCCN)NC(=O)[C@H](CCCNC(=N)N)NC(=O)[C@H](CC(C)C)NC(=O)[C@H](CC(C)C)NC(=O)[C@H](CCC(=O)O)NC(=O)[C@H](CC(C)C)NC(=O)[C@H](CO)NC(=O)[C@H](CC(C)C)NC(=O)[C@H](CC(=O)O)NC(=O)[C@@H](NC(=O)[C@H](CO)NC(=O)[C@@H](NC(=O)[C@@H]1CCCN1C(=O)[C@@H]1CCCN1C(=O)CNC(=O)[C@@H]1CCC(=O)N1)[C@@H](C)CC)[C@@H](C)CC)[C@@H](C)CC)[C@@H](C)CC)[C@@H](C)O)C(N)=O [sauvagine]
[1]; FIG. 3A
  glucocorticoid-induced atrophy of the tibialis anterior muscle (muscle weight): inhibits glucocorticoid-induced muscle atrophy
[1]; FIG. 3B
  glucocorticoid-induced atrophy of the medial gastrocnemius muscle (muscle weight): inhibits glucocorticoid-induced muscle atrophy
[2]; FIG. 4A, casted leg, male mice, 0.03-0.3 mg/kg s.c. twice daily + theophylline 30 mg/kg i.p.
  disuse-induced atrophy of the tibialis anterior muscle (muscle weight): inhibits disuse-induced atrophy
[2]; FIG. 4A, non-casted leg, 0.03-0.3 mg/kg s.c. twice daily + theophylline 30 mg/kg i.p.
  hypertrophy of the tibialis anterior muscle of the non-casted leg: statistically significant hypertrophy
[2]; FIG. 4B, casted leg, male mice, 0.03-0.3 mg/kg s.c. twice daily + theophylline 30 mg/kg i.p.
  disuse-induced atrophy of the medial gastrocnemius muscle (muscle weight): inhibits disuse-induced atrophy
[2]; FIG. 4B, non-casted leg, 0.03-0.3 mg/kg s.c. twice daily + theophylline 30 mg/kg i.p.
  hypertrophy of the medial gastrocnemius muscle of the non-casted leg: statistically significant hypertrophy
[2]; [3]
  disuse-induced loss of EDL muscle mass: inhibits disuse-induced loss
  disuse-induced loss of soleus muscle mass: inhibits disuse-induced loss
[2]; FIG. 9B, EDL and soleus muscles, 0.3 mg/kg s.c. twice daily + theophylline 30 mg/kg
  loss of muscle function as assessed by measurement of absolute force: inhibits loss of muscle function
